This data set deals with CCRIS mutagenicity, Ames/micronucleus/aberration tests. Briefly: CCRIS mutagenicity studies.
Setting [1] is: Test System: AMES SALMONELLA TYPHIMURIUM, Strain/Indicator: TA98, Metabolic Activation: NONE, Method: STANDARD PLATE.
Where [2] appears, read: Test System: AMES SALMONELLA TYPHIMURIUM, Strain/Indicator: TA98, Metabolic Activation: RAT, LIVER, S-9, AROCLOR 1254, Method: STANDARD PLATE.
Where [3] appears, read: Test System: AMES SALMONELLA TYPHIMURIUM, Strain/Indicator: TA1538, Metabolic Activation: NONE, Method: STANDARD PLATE.
Setting [4] is: Test System: AMES SALMONELLA TYPHIMURIUM, Strain/Indicator: TA1538, Metabolic Activation: RAT, LIVER, S-9, AROCLOR 1254, Method: STANDARD PLATE.
Setting [5] is: Test System: AMES SALMONELLA TYPHIMURIUM, Strain/Indicator: TA100, Metabolic Activation: NONE, Method: STANDARD PLATE.
The mark [6] stands for this setting: Test System: AMES SALMONELLA TYPHIMURIUM, Strain/Indicator: TA100, Metabolic Activation: RAT, LIVER, S-9, AROCLOR 1254, Method: STANDARD PLATE.
[7] abbreviates: Test System: AMES SALMONELLA TYPHIMURIUM, Strain/Indicator: TA1537, Metabolic Activation: NONE, Method: STANDARD PLATE.

Active and inactive are the calls of the source. The rule behind the calls is not given here.

This is an account of results in PubChem BioAssay AID1259407 (Chemical Carcinogenesis Research Information System (CCRIS), 2018).

As to `C/C=C1\C[C@@H](C)[C@](C)(O)C(=O)OC[C@H]2CCN3CC[C@@H](OC1=O)C23` (some centres undefined), the mutagenic call (Test System: UDS RAT HEPATOCYTES, Strain/Indicator: THY INCORP, Metabolic Activation: NONE, Method: AUTORADIOGRAPHY) is “inactive; negative”.

As for `CC(c1ccccc1)N(C)C` (centres undefined), the mutagenic call was “inactive; negative” (Test System: AMES SALMONELLA TYPHIMURIUM, Strain/Indicator: TA98, Metabolic Activation: NONE, Method: PREINCUBATION); “inactive; negative” (Test System: AMES SALMONELLA TYPHIMURIUM, Strain/Indicator: TA98, Metabolic Activation: RAT, LIVER, S-9, PCB, Method: PREINCUBATION); “inactive; negative” (Test System: AMES SALMONELLA TYPHIMURIUM, Strain/Indicator: TA100, Metabolic Activation: NONE, Method: PREINCUBATION); “inactive; negative” (Test System: AMES SALMONELLA TYPHIMURIUM, Strain/Indicator: TA100, Metabolic Activation: RAT, LIVER, S-9, PCB, Method: PREINCUBATION).

As to `CC(=O)Nc1ccc([N+](=O)[O-])cc1`, the mutagenic call (Test System: AMES SALMONELLA TYPHIMURIUM, Strain/Indicator: TA98(NR), Metabolic Activation: NONE, Method: STANDARD PLATE) was “inactive; negative”; the mutagenic call (Test System: AMES SALMONELLA TYPHIMURIUM, Strain/Indicator: TA98(NR), Metabolic Activation: RAT, LIVER, S-9, AROCLOR 1254, Method: STANDARD PLATE) is “inactive; negative”; the mutagenic call under setting [1] is “inactive; negative”; the mutagenic call under setting [2] is “inactive; negative”; the mutagenic call (Test System: AMES SALMONELLA TYPHIMURIUM, Strain/Indicator: TA1538(NR), Metabolic Activation: NONE, Method: STANDARD PLATE) is “inactive; negative”; the mutagenic call (Test System: AMES SALMONELLA TYPHIMURIUM, Strain/Indicator: TA1538(NR), Metabolic Activation: RAT, LIVER, S-9, AROCLOR 1254, Method: STANDARD PLATE) was “inactive; negative”. Also, the mutagenic call was “inactive; negative” under setting [3] and “inactive; negative” under setting [4].

For the compound `Oc1ccc([C@H]2COc3cc(O)ccc3C2)cc1`, the mutagenic call (End Point: IN VITRO MICRONUCLEUS, Test System: CHINESE HAMSTER V79 CELLS, Metabolic Activation: NONE) is “active; positive”.

Regarding `CC(=O)N(O)c1ccc(C)cc1`, the mutagenic call was “inactive; negative” under setting [1], “inactive; negative” under setting [2], “inactive; negative” under setting [5] and “inactive; negative” under setting [6].

`Cc1cc2c(C)c3ccccc3c(C)c2cc1C`: the mutagenic call was “active; positive” under setting [1], “active; positive” under setting [2], “inactive; negative” under setting [5] and “active; positive” under setting [6].

In the case of `c1ccc2c(c1)OCCOCCOCCOCCO2`, the mutagenic call runs as follows: under setting [1], “inactive; negative”; under setting [2], “inactive; negative”; under setting [5], “inactive; negative”; under setting [6], “inactive; negative”; (Test System: AMES SALMONELLA TYPHIMURIUM, Strain/Indicator: TA1530, Metabolic Activation: NONE, Method: STANDARD PLATE) “inactive; negative”; (Test System: AMES SALMONELLA TYPHIMURIUM, Strain/Indicator: TA1530, Metabolic Activation: RAT, LIVER, S-9, AROCLOR 1254, Method: STANDARD PLATE) “inactive; negative”. Further, the mutagenic call by setting is: under setting [7], “inactive; negative”; (Test System: AMES SALMONELLA TYPHIMURIUM, Strain/Indicator: TA1537, Metabolic Activation: RAT, LIVER, S-9, AROCLOR 1254, Method: STANDARD PLATE) “inactive; negative”.

With `COC(=O)c1ccc([N+](=O)[O-])o1`, the mutagenic call under setting [1] is “active; positive” and the mutagenic call under setting [5] was “active; positive”.

With `CN(C)CCNC(=O)c1ccc2ccc3cccnc3c2n1`, the mutagenic call under setting [7] is “active; positive”.

For `CC(C)c1cc(N)cc([N+](=O)[O-])c1N`, the mutagenic call reads like this: under setting [1], “inactive; negative”; under setting [2], “inactive; negative”; under setting [5], “inactive; negative”; under setting [6], “inactive; negative”; under setting [3], “inactive; negative”; under setting [4], “inactive; negative”.

Consider `NC(=O)CCC(=O)Nc1ccc(Cl)cc1`, for which the mutagenic call is “inactive; negative” under setting [1], “inactive; negative” under setting [2], “inactive; negative” under setting [5] and “inactive; negative” under setting [6].

Turning to `O=[N+]([O-])c1ccc2c(ccc3c4ccccc4ccc23)c1`, the mutagenic call (Test System: AMES SALMONELLA TYPHIMURIUM, Strain/Indicator: TA98(1,8-DNP6), Metabolic Activation: NONE) was “active; positive”; the mutagenic call (Test System: AMES SALMONELLA TYPHIMURIUM, Strain/Indicator: TA98(1,8-DNP6), Metabolic Activation: RAT, LIVER, S-9, AROCLOR 1254) was “active; positive”; the mutagenic call (Test System: AMES SALMONELLA TYPHIMURIUM, Strain/Indicator: TA98(NR), Metabolic Activation: NONE) was “active; positive”; the mutagenic call (Test System: AMES SALMONELLA TYPHIMURIUM, Strain/Indicator: TA98(NR), Metabolic Activation: RAT, LIVER, S-9, AROCLOR 1254) was “active; positive”; the mutagenic call (Test System: AMES SALMONELLA TYPHIMURIUM, Strain/Indicator: TA98, Metabolic Activation: NONE) was “active; positive”; the mutagenic call (Test System: AMES SALMONELLA TYPHIMURIUM, Strain/Indicator: TA98, Metabolic Activation: RAT, LIVER, S-9, AROCLOR 1254) was “active; positive”. Also, the mutagenic call is “active; positive” (Test System: AMES SALMONELLA TYPHIMURIUM, Strain/Indicator: TA100(NR), Metabolic Activation: NONE); “active; positive” (Test System: AMES SALMONELLA TYPHIMURIUM, Strain/Indicator: TA100(NR), Metabolic Activation: RAT, LIVER, S-9, AROCLOR 1254); “active; positive” (Test System: AMES SALMONELLA TYPHIMURIUM, Strain/Indicator: TA100, Metabolic Activation: NONE); “active; positive” (Test System: AMES SALMONELLA TYPHIMURIUM, Strain/Indicator: TA100, Metabolic Activation: RAT, LIVER, S-9, AROCLOR 1254); “active; positive” (Test System: AMES SALMONELLA TYPHIMURIUM, Strain/Indicator: TA104, Metabolic Activation: NONE); “active; positive” (Test System: AMES SALMONELLA TYPHIMURIUM, Strain/Indicator: TA104, Metabolic Activation: RAT, LIVER, S-9, AROCLOR 1254).

Turning to `Nc1nc2c(ncn2[C@@H]2O[C@H](COP(=O)(O)O)[C@@H](O)[C@H]2O)c(=O)[nH]1`, the mutagenic call is, setting by setting: (Test System: AMES SALMONELLA TYPHIMURIUM, Strain/Indicator: TA97, Metabolic Activation: NONE, Method: PREINCUBATION) “inactive; negative”; (Test System: AMES SALMONELLA TYPHIMURIUM, Strain/Indicator: TA97, Metabolic Activation: RAT, LIVER, S-9, AROCLOR 1254, Method: PREINCUBATION) “inactive; negative”; (Test System: AMES SALMONELLA TYPHIMURIUM, Strain/Indicator: TA102, Metabolic Activation: NONE, Method: PREINCUBATION) “inactive; negative”; (Test System: AMES SALMONELLA TYPHIMURIUM, Strain/Indicator: TA102, Metabolic Activation: RAT, LIVER, S-9, AROCLOR 1254, Method: PREINCUBATION) “inactive; negative”.
